# Laboratory results as given in patent US7691901B2, “Carotenoid analogs or derivatives for the inhibition and amelioration of inflammation” (Cardax Pharmaceuticals Inc., priority 2004, dated 2010).
# Legend:
# [1] = system: superoxide anion; assay: Direct superoxide anion scavenging by EPR spectroscopy (DEPMPO spin-trap) in PMA-stimulated isolated human neutrophils; format: cell-based
# Description: Leukocyte Isolation and Preparation. Human polymorphonuclear leukocytes (PMNs) were isolated from freshly sampled venous blood of a single volunteer by Percoll density gradient centrifugation as described previously. Briefly, each 10 mL of whole blood was mixed with 0.8 mL of 0.1 M EDTA and 25 mL of saline. The diluted blood was then layered over 9 mL of Percoll at a specific density of 1.080 g/mL. After centrifugation at 400×g for 20 min at 20° C., the plasma, mononuclear cell, and Percoll layers were removed. Erythrocytes were subsequently lysed by addition of 18 mL of ice-cold water for 30 s, followed by 2 mL of 10× PIPES buffer (25 mM PIPES, 110 mM NaCl, and 5 mM KCl, titrated to pH 7.4 with NaOH). Cells were then pelleted at 4° C., the supernatant was decanted, and the procedure was repeated. After the second hypotonic cell lysis, cells were washed twice with PAG buffer [PIPES buffer containing 0.003% human serum albumin (HSA) and 0.1% glucose]. Afterward, PMNs were counted by light microscopy on a hemocytometer. The isolation yielded PMNs with a purity of >95%. The final pellet was then suspended in PAG-CM buffer (PAG buffer with 1 mM CaCl2 and 1 mM MgCl2). EPR Measurements. All EPR measurements were performed using a Bruker ER 300 EPR spectrometer operating at X-band with a TM110 cavity as previously described. The microwave frequency was measured with a Model 575 microwave counter (EIP Microwave, Inc., San Jose, Calif.). To measure superoxide anion (O2) generation from phorbol-ester (PMA)-stimulated PMNs, EPR spin-trapping studies were performed using the spin trap DEPMPO (Oxis, Portland, Oreg.) at 10 mM. 1×10^6 PMNs were stimulated with PMA (1 ng/mL) and loaded into capillary tubes for EPR measurements. To determine the radical scavenging ability of 3 and 9 in aqueous and ethanolic formulations, PMNs were pre-incubated for 5 minutes with test compound, followed by PMA stimulation.
# Instrument settings used in the spin-trapping experiments were as follows: modulation amplitude, 0.32 G; time constant, 0.16 s; scan time, 60 s; modulation frequency, 100 kHz; microwave power, 20 milliwatts; and microwave frequency, 9.76 GHz. The samples were placed in a quartz EPR flat cell, and spectra were recorded. The component signals in the spectra were identified and quantified as reported previously.
# [2] = format: physicochemical
# Description: Determination of aqueous solubility/dispersibility. 30.13 mg of 3 was added to 1 mL of USP-purified water. The sample was rotated for 2 hours, then centrifuged for 5 minutes. […] A 125-μL aliquot of the solution was then diluted to 25 mL. The sample was analyzed by UV/Vis spectroscopy at 436 nm, and the absorbance was compared to a standard curve compiled from 4 standards of known concentration.
# The sample was rotated for 2 hours, then centrifuged for 5 minutes. […] A 125-μL aliquot of the solution was then diluted to 25 mL. The sample was analyzed by UV/Vis spectroscopy at 411 nm, and the absorbance was compared to a standard curve compiled from 4 standards of known concentration.
# [3] = molecular target: human serum albumin (HSA) (Homo sapiens, UniProt P02768); assay: Plasma-protein binding studies in vitro
# human serum albumin (HSA), sequence (P02768 25-609): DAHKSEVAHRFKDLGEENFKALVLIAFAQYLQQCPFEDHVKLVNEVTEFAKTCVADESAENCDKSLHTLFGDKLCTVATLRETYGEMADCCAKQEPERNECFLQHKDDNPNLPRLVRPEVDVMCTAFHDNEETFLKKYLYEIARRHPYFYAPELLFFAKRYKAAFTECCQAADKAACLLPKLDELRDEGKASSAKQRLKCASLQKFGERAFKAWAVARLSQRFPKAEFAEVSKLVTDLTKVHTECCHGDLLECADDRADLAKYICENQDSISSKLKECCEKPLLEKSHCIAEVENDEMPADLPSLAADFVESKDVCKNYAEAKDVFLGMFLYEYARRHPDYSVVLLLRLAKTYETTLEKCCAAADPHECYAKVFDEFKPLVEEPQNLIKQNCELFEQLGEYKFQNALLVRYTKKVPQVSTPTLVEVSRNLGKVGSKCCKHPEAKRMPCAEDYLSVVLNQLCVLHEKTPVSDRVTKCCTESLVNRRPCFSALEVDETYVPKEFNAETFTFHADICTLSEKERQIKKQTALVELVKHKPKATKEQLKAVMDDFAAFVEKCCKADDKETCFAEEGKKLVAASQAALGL
compound,measurement,setting,value
"3,3′-Diphosphoryloxy-β,ε-carotene sodium salt [compound 9]",Mean (% inhibition) of superoxide anion signal,"[1]; 0.1 mM, 40% EtOH (EtOH vehicle alone 5%), listed as Lutein Diphosphate Sodium Salt, sodium salt",18.0%
same,Mean (% inhibition) of superoxide anion signal,"[1]; 0.1 mM, 40% EtOH (EtOH vehicle alone 5%), listed as disodium diphosphate derivative of natural source lutein, sodium salt",18%
same,Mean (% inhibition) of superoxide anion signal,"[1]; 0.1 mM, Water, listed as disodium diphosphate derivative of natural source lutein, sodium salt",0%
same,Mean (% inhibition) of superoxide anion signal,"[1]; 1.0 mM, Water",9.3%
same,Mean (% inhibition) of superoxide anion signal,"[1]; 3.0 mM, Water",72.3%
same,Mean (% inhibition) of superoxide anion signal,"[1]; 5.0 mM, Water, listed as Lutein Diphosphate Sodium Salt, sodium salt",91.0%
same,Mean (% inhibition) of superoxide anion signal,"[1]; 5.0 mM, Water, listed as disodium diphosphate derivative of natural source lutein, sodium salt",more than 90%
same,increase in dispersibility of diphosphate salt over disuccinate sodium salt,[2],> 10 fold
"CC1=C(/C=C/C(C)=C/C=C/C(C)=C/C=C/C=C(C)/C=C/C=C(C)/C=C/C2=C(C)C(=O)[C@@H](O)CC2(C)C)C(C)(C)C[C@H](O)C1=O [astaxanthin, reference compound]",water solubility,[2],insoluble in water
"CC(C=CC=C(C)C=CC1=C(C)C(=O)C(OC(=O)CCC(=O)[O-])CC1(C)C)=CC=CC=C(C)C=CC=C(C)C=CC1=C(C)C(=O)C(OC(=O)CCC(=O)[O-])CC1(C)C.[Na+].[Na+] [meso-(3R,3′S)-disodium disuccinate astaxanthin]",binding to human serum albumin,[3],bound immediately and preferentially to human serum albumin (HSA)
"β,ε-carotenyl 3,3′-disuccinate sodium salt [compound 3]",Mean (% inhibition) of superoxide anion signal,"[1]; 0.1 mM, 40% EtOH (EtOH vehicle alone 5%), listed as Lutein Disuccinate Sodium Salt, sodium salt",5.0%
same,Mean (% inhibition) of superoxide anion signal,"[1]; 0.1 mM, 40% EtOH (EtOH vehicle alone 5%), listed as disodium disuccinate derivative of natural source lutein, sodium salt",did not significantly increase scavenging
same,Mean (% inhibition) of superoxide anion signal,"[1]; 0.1 mM, Water",0%
same,Mean (% inhibition) of superoxide anion signal,"[1]; 1.0 mM, Water",13.0%
same,Mean (% inhibition) of superoxide anion signal,"[1]; 3.0 mM, Water",61.7%
same,Mean (% inhibition) of superoxide anion signal,"[1]; 5.0 mM, Water, listed as Lutein Disuccinate Sodium Salt, sodium salt",74.7%
same,Mean (% inhibition) of superoxide anion signal,"[1]; 5.0 mM, Water, listed as disodium disuccinate derivative of natural source lutein, sodium salt",~75%
same,Mean (% inhibition) of superoxide anion signal,"[1]; 5.0 mM, Water, listed as disuccinate lutein sodium salt, sodium salt",75%
same,Aqueous dispersibility (concentration of supernatant),[2]; 2 h,2.85 mg/mL
